In patent publication US4029801A, “Pharmaceutical compositions and methods of treating hypertension” (priority 1970, dated 1977) one finds hypotensive activity and minimal effective dose data, which are given here for 37 molecules.

One assay relates to blood pressure. The assay is described as follows: Tests for action on the cardiovascular system: hypotensive activity (activity in method 1, rats or cats, or method 2), reported in words. The following applies: standard test procedure, result in words. In kind it is in vivo, rat, cat. The procedure: Tests for action on the cardiovascular system were conducted according to one of the following procedures:
Cats were anaesthetised with pentobarbitone sodium (30 mg/kg) and the cephalic vein, femoral and carotid arteries and trachea were cannulated. The carotid cannula was introduced into the left ventricle and the femoral cannula into the aorta. Blood pressure and heart rate were recorded from the aortic cannula and left ventricular pressure from the carotid cannula. The test compunds were administered intravenously (0.1-25.6 mg/kg).
Method 2 (hypertensive rats)
Male or female rats are rendered hypertensive by applying a figure of 8 ligature around one kidney and contralateral nephrectomy. Blood pressure stabilises at a hypertensive level after 6 weeks. Systolic pressure is measured indirectly using a Decker Caudal Plethysmograph A control group of rats is run with each group treated with drug. Each group usually consists of six rats. Drugs are usually administered by the IP or oral routes. Pressures are read prior to drug administration and at two and 24 hours thereafter.

Assay [1] deals with blood pressure and heart rate. In words: Method 1 (rat): hypotensive activity in anaesthetised rats, i.v. The note with it: Rattus norvegicus, iv, 0.25 h, read-out: Hypotensive Activity.
Experimental: Rats were anaesthetised with pentobarbitone sodium (60 mg/kg) and the jugular vein, trachea and carotid artery were cannulated. […] A decrease in heart rate of more than 30% from control values was considered to be significant bradycardia.

Molecules are shown by their SMILES. Where only a bound is given, the exact number is not on record here.

Consider `O=C(NC1CCN(CCCC(O)c2ccccc2)CC1)c1ccccc1` (single isomer, unassigned; (+)) [Example 86, (+)-4-Benzamido-1-(4-phenyl-4-hydroxybutyl)piperidine], for which, in the assay on blood pressure, the hypotensive activity entry is on record as “hypotensive activity”. Moreover, the minimal effective dose in assay [1] was in the range of 1.6 to 3.2 mg/kg.

With `O=C(NC1CCN(CCC2CCCCC2)CC1)c1ccccc1` [Example 1, 1-[2-(Cyclohexyl)ethyl]-4-benzamidopiperidine], the hypotensive activity result with blood pressure is “good hypotensive activity”. Moreover, in assay [1], the minimal effective dose fell in the range of 1.6 to 3.2 mg/kg.

Take `COc1ccc(CCN2CCC(NC(=O)c3ccccc3)CC2)cc1OC` [Example 5, 1-[2-(3,4-Dimethoxyphenyl)ethyl]-4-benzamidopiperidine]: in assay [1], the minimal effective dose is below 30 mg/kg.

Regarding `COc1ccc(CCN2CCC(NC(=O)c3ccccc3Cl)CC2)cc1OC` [Example 6, 1-[2-(3,4-Dimethoxyphenyl)ethyl]-4-(2-chlorobenzamido)-piperidine], the hypotensive activity result in the assay with blood pressure is given as “hypotensive activity”. The minimal effective dose in assay [1] amounted to 25.6 mg/kg.

With `COc1cc(CCN2CCC(NC(=O)c3ccccc3)CC2)cc(OC)c1OC` [Example 8, 1-[2-(3,4,5-Trimethoxyphenyl)ethyl]-4-benzamidopiperidine], the minimal effective dose in assay [1] was in the range of 6.4 to 12.8 mg/kg.

Consider `O=C(CN1CCC(NC(=O)c2ccccc2)CC1)c1ccc(O)c(O)c1` [Example 11, 1-[2-(3,4-Dihydroxyphenyl)-2-oxoethyl]-4-benzamidopiperidine], for which the hypotensive activity result in the assay on blood pressure was “marked hypotensive activity”. The minimal effective dose in assay [1] lay within 1.6 to 3.2 mg/kg.

In the case of `O=C(NC1=CCN(CCc2ccccc2)CC1)c1ccccc1` [Example 26, 1-Phenethyl-4-benzamido-1,2,5,6-tetrahydropyridine], the hypotensive activity entry in the assay on blood pressure is recorded as “hypotensive activity”.

As for `O=C(NC1CCN(Cc2ccccc2)CC1)c1ccccc1` [Example 30, 1-Benzyl-4-benzamidopiperidine], the minimal effective dose in assay [1] turned out to be 25.6 mg/kg.

In the case of `Cc1ccc(C(=O)NC2CCN(Cc3ccccc3)CC2)cc1` [Example 32, 1-Benzyl-4-(p-methylbenzamido)piperidine], in assay [1], the minimal effective dose was below 30 mg/kg.

For the molecule `O=C(NC1CCN(CCc2ccccc2[N+](=O)[O-])CC1)c1ccccc1` [Example 33, 1-[2-(o-Nitrophenyl)ethyl]-4-benzamido-piperidine], in the assay with blood pressure, the hypotensive activity entry is on record as “hypotensive activity”. Besides, the minimal effective dose in assay [1] lay in the range of 6.4 to 12.8 mg/kg.

For `Cc1ccc(CCN2CCC(NC(=O)c3ccccc3)CC2)cc1C` [Example 41, 1-[2-(3,4-Dimethylphenyl)ethyl]-4-benzamidopiperidine], in the assay with blood pressure, the hypotensive activity result is listed as “hypotensive activity”. Also, the minimal effective dose in assay [1] lay within 6.4 to 12.8 mg/kg.

On to `COc1ccc(CCN2CCC(NC(=O)c3ccccc3)CC2)cc1` [Example 49, 4-Benzamido-1-[2-(p-methoxyphenyl)ethyl]piperidine], for which the hypotensive activity result in the assay with blood pressure was “hypotensive activity”. Moreover, the minimal effective dose in assay [1] fell in the range of 6.4 to 12.8 mg/kg.

As for `O=C(CCCN1CCC(NC(=O)c2ccccc2)CC1)Nc1ccccc1` [Example 50, N-Phenyl-4-(p-benzamidopiperid-1-yl)butyramide], the hypotensive activity entry with blood pressure is listed as “hypotensive activity”. Besides, the minimal effective dose in assay [1] is 6.4 to 12.8 mg/kg.

As for `O=C(NC1CCN(CCCC(O)c2ccccc2)CC1)c1ccccc1` (stereo not shown) [Example 53, 4-Benzamido-1-(4-phenyl-4-hydroxybutyl)piperidine], in the assay with blood pressure, the hypotensive activity entry was “hypotensive activity”. Besides, in assay [1], the minimal effective dose was 6.4 to 12.8 mg/kg.

For the molecule `O=C(NC1CCN(CCCOc2cccc3ccccc23)CC1)c1ccccc1` [Example 55, 1-[3-(1-Naphthyloxy)-propyl]-4-benzamidopiperidine], the hypotensive activity result in the assay with blood pressure is reported as “marked hypotensive activity”. Further, the minimal effective dose in assay [1] is 1.6 to 3.2 mg/kg.

With `O=C(CN1CCC(NC(=O)c2ccccc2)CC1)c1ccc2c(c1)CCCC2` [Example 56, 1-[2-(1,2,3,4-Tetrahydro-6-napthyl)-2-oxoethyl]-4-benzamidopiperidine], in the assay with blood pressure, the hypotensive activity entry is reported as “hypotensive activity”. Further, the minimal effective dose in assay [1] was in the range of 6.4 to 12.8 mg/kg.

As for `O=C(NC1CCN(CC(O)c2ccc3c(c2)CCCC3)CC1)c1ccccc1` (stereo not shown) [Example 57, 1-[2-(1,2,3,4-Tetrahydro-6-naphthyl)-2-hydroxyethyl]-4-benzamido-piperidine], the hypotensive activity entry with blood pressure was “hypotensive activity”. Further, the minimal effective dose in assay [1] was 1.6 to 3.2 mg/kg.

Turning to `Cl.O=C(NC1CCN(CCc2ccccc2)CC1)c1ccccc1` [Example 59, 1-Phenethyl-4-benzamidopiperidine hydrochloride], the hypotensive activity entry with blood pressure is “hypotensive activity”.

For `CC(C(=O)c1ccc(O)cc1)N1CCC(NC(=O)c2ccccc2)CC1` (stereo not shown) [Example 64, 1-[1-Methyl-2-(4-hydroxy)phenyl-2-oxoethyl]-4-benzamidopiperidine], the minimal effective dose in assay [1] was below 30 mg/kg.

Turning to `CC(C(O)c1ccc(O)cc1)N1CCC(NC(=O)c2ccccc2)CC1` (stereo not shown) [Example 65, 1-[1-Methyl-2-(4-hydroxy)phenyl-2-hydroxyethyl]-4-benzamidopiperidine], in the assay with blood pressure, the hypotensive activity entry was “hypotensive activity”. Further, in assay [1], the minimal effective dose amounted to 25.6 mg/kg.

In the case of `Cc1cc2c(cc1C(=O)CN1CCC(NC(=O)c3ccccc3)CC1)C(C)(C)CC(C)C2(C)C` (stereo not shown) [Example 66, 7-(4-Benzamidopiperidinoacetyl)-1,1,3,4,4,6-hexamethyl-1,2,3,4-tetrahydronaphthalene], the hypotensive activity result in the assay with blood pressure is recorded as “hypotensive activity”. Also, the minimal effective dose in assay [1] was 6.4 to 12.8 mg/kg.

Regarding `Cc1cc2c(cc1C(O)CN1CCC(NC(=O)c3ccccc3)CC1)C(C)(C)CC(C)C2(C)C` (stereo not shown) [Example 67, 7-[2-(4-Benzamidopiperid-1-yl)-1-hydroxyethyl]-1,1,3,4,4,6-Hexamethyl-1,2,3,4-tetrahydronaphthalene], the hypotensive activity result in the assay on blood pressure is given as “hypotensive activity”.

Regarding `COc1ccccc1OCCN1CCC(NC(=O)c2ccccc2)CC1` [Example 68, 1-[2-(2-Methoxyphenoxy)ethyl]-4-benzamidopiperidine], the hypotensive activity entry in the assay on blood pressure is listed as “hypotensive activity”. Besides, the minimal effective dose in assay [1] lay within 6.4 to 12.8 mg/kg.

Consider `O=C(CCCN1CCC(NC(=O)c2ccccc2)CC1)c1ccc(Br)cc1` [Example 71, 4-Benzamido-1-[4-(4-bromophenyl)-4-oxobutyl]piperidine], for which the minimal effective dose in assay [1] turned out to be 25.6 mg/kg.

With `O=C(CCCN1CCC(NC(=O)c2ccc(Cl)cc2)CC1)c1ccccc1` [Example 76, 4-(4-Chlorobenzamido)-1-(4-phenyl-4-oxobutyl)piperidine], the hypotensive activity result in the assay with blood pressure was “hypotensive activity”. In addition, the minimal effective dose in assay [1] fell in the range of 6.4 to 12.8 mg/kg.

As for `COc1ccc(C(=O)CCCN2CCC(NC(=O)c3ccccc3)CC2)cc1` [Example 77, 4-Benzamido-1-[4-(4-methoxyphenyl)-4-oxobutyl]piperidine], in assay [1], the minimal effective dose lay within 6.4 to 12.8 mg/kg.

Consider `CC(Cc1ccccc1)N1CCC(NC(=O)c2ccccc2)CC1` (stereo not shown) [Example 78, 4-Benzamido-1-(1-phenylprop-2-yl)piperidine], for which the hypotensive activity entry in the assay on blood pressure is “marked hypotensive activity”. The minimal effective dose in assay [1] was 6.4 to 12.8 mg/kg.

Regarding `O=C(CCCN1CCC(NC(=O)c2ccccc2)CC1)c1ccc2ccccc2c1` [Example 80, 1-[4-(2-Naphthyl)-4-oxobutyl]-4-benzamidopiperidine], the hypotensive activity entry in the assay on blood pressure is recorded as “hypotensive activity”. Also, the minimal effective dose in assay [1] fell in the range of 1.6 to 3.2 mg/kg.

`C[N+]1(CCCC(=O)c2ccccc2)CCC(NC(=O)c2ccccc2)CC1` (stereo not shown) [Example 82, 4-Benzamido-1-methyl-1-(4-phenyl-4-oxobutyl)piperidinium iodide]: in the assay with blood pressure, the hypotensive activity entry is recorded as “hypotensive activity”.

In the case of `O=C(NC1CCN(CCCC(O)c2ccc3ccccc3c2)CC1)c1ccccc1` (stereo not shown) [Example 83, 1-[4-(2'-Naphthyl)-4-hydroxybutyl]-4-benzamidpiperidine], the hypotensive activity entry in the assay with blood pressure is reported as “hypotensive activity”. The minimal effective dose in assay [1] lay within 1.6 to 3.2 mg/kg.

For `O=C(NC1CCN(CCc2ccc3ccccc3c2)CC1)C1CCCCC1` [Example 84], in the assay with blood pressure, the hypotensive activity result is reported as “hypotensive activity”. In assay [1], the minimal effective dose lay within 6.4 to 12.8 mg/kg.

Consider `O=C(NC1CCN(CCC=C(c2ccc(F)cc2)c2ccc(F)cc2)CC1)c1ccccc1` [Example 87, 4-(4-Benzamidopiperid-1-yl)-1,1-(di-p-fluorophenyl)but-l-ene], for which the hypotensive activity result in the assay with blood pressure was “hypotensive activity”. The minimal effective dose in assay [1] worked out at 25.6 mg/kg.

For `O=C(NC1CCN(CCC=C(c2ccccc2)c2ccccc2)CC1)c1ccccc1` [Example 89, 4-(4-Benzamidopiperid-1-yl)-1,1-diphenylbut-l-ene], in the assay on blood pressure, the hypotensive activity entry is “hypotensive activity”. The minimal effective dose in assay [1] is 6.4 to 12.8 mg/kg.

With `O=C(NC1CCN(CCCC(c2ccccc2)c2ccccc2)CC1)c1ccccc1` [Example 90, 4-(4-Benzamidopiperid-1-yl)-1,1-diphenyl butane], the hypotensive activity result in the assay on blood pressure is reported as “hypotensive activity”. Besides, the minimal effective dose in assay [1] was in the range of 6.4 to 12.8 mg/kg.

Consider `O=C(CCN1CCC(NC(=O)c2ccccc2)CC1)c1ccc2c(c1)OCCO2` [Example 91, 1-[3-(1,4-Benzodioxan-6-yl)-3-oxopropyl]-4-benzamidopiperidine], for which the hypotensive activity entry with blood pressure is listed as “hypotensive activity”. In assay [1], the minimal effective dose worked out at 25.6 mg/kg.

Regarding `O=C(NC1CCN(CCc2ccc3ccccc3n2)CC1)c1ccccc1` [Example 95, 1-[2-(2-Quinolyl)ethyl]-4-benzamidopiperidine], the hypotensive activity result in the assay with blood pressure is recorded as “marked hypotensive activity”.

Consider `O=C(NC1CCN(CC(O)c2ccc[nH]2)CC1)c1ccccc1` (stereo not shown) [Example 98, 1-[2-Hydroxy-2-(2-pyrrol-2-yl)ethyl]-4-benzamidopiperidine], for which the hypotensive activity entry with blood pressure is reported as “hypotensive activity”.
